Measured values as given in ChEMBL document CHEMBL1201862, “PubChem BioAssay data set” (2004).
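Interpolation was linear, between the two tested concentrations surrounding the appropriate level; five concentrations were tested over 48 hours in 96-well plates. GI50 is the concentration that inhibits growth by half.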 Calls of active or inactive are those of the source. Cut-off read from the data, not from the text of the source: active = GI50 up to about 1.1 µM and inactive = higher.

Legend:
Assay in all cases: growth of human tumour cells (NCI), 48 h
HOP-62 = test system: HOP-62
SNB-19 = test system: SNB-19
HCT-15 = test system: HCT-15
MOLT-4 = test system: MOLT-4
NCI/ADR-RES = test system: NCI/ADR-RES
A549 = test system: A549
T47D = test system: T47D
K562 = test system: K562
SK-MEL-5 = test system: SK-MEL-5
CAKI-1 = test system: CAKI-1
MDA-MB-231 = test system: MDA-MB-231
EKVX = test system: EKVX
COLO 205 = test system: COLO 205
U-251 = test system: U-251
SF-295 = test system: SF-295
SR = test system: SR
OVCAR-5 = test system: OVCAR-5
HT-29 = test system: HT-29
NCI-H522 = test system: NCI-H522
SK-MEL-2 = test system: SK-MEL-2

SMILES	GI50 (HOP-62)	GI50 (SNB-19)	GI50 (HCT-15)	GI50 (MOLT-4)	GI50 (NCI/ADR-RES)	GI50 (A549)	GI50 (T47D)	GI50 (K562)	GI50 (SK-MEL-5)	GI50 (CAKI-1)	GI50 (MDA-MB-231)	GI50 (EKVX)	GI50 (COLO 205)	GI50 (U-251)	GI50 (SF-295)	GI50 (SR)	GI50 (OVCAR-5)	GI50 (HT-29)	GI50 (NCI-H522)	GI50 (SK-MEL-2)
CC(C)Cn1cnc2c(Sc3c([N+](=O)[O-])ncn3C)nc(N)nc21	> 80.4 µM (inactive)	> 100 µM (inactive)	> 59.8 µM	> 42.2 µM (inactive)	> 100 µM (inactive)	> 67.9 µM (inactive)	30.4 µM (inactive)	> 47.3 µM (inactive)	15.2 µM (inactive)	22.8 µM (inactive)	64.4 µM (inactive)	> 50.8 µM (inactive)	> 25.6 µM (inactive)	> 87.1 µM (inactive)	> 100 µM (inactive)	38.7 µM (inactive)	> 100 µM (inactive)	> 100 µM (inactive)	26.3 µM (inactive)	22 µM (inactive)
O=C1C(c2c(O)[nH]c3ccccc23)=Nc2ccc(Br)cc21	21.3 µM (inactive)	22 µM (inactive)	76.2 µM	18.9 µM (inactive)	37.4 µM (inactive)	27.2 µM (inactive)	21.8 µM (inactive)	27.2 µM (inactive)	> 100 µM (inactive)	56.2 µM (inactive)	23.3 µM (inactive)	15.1 µM (inactive)	> 100 µM (inactive)	19.5 µM (inactive)	22.4 µM (inactive)	26.5 µM (inactive)	49.3 µM (inactive)	23.9 µM (inactive)	28.5 µM (inactive)	29.8 µM (inactive)
O=C1CSC(c2cccc(Oc3ccccc3)c2)N1c1ccc(Cl)cc1 (configuration not stated)	57 µM (inactive)	54.8 µM (inactive)	26.4 µM	13.6 µM (inactive)	24.4 µM (inactive)	31.9 µM (inactive)	10.2 µM (inactive)	15.7 µM (inactive)	11.9 µM (inactive)	17.9 µM (inactive)	27.4 µM (inactive)	20.7 µM (inactive)	18.5 µM (inactive)	31 µM (inactive)	31 µM (inactive)	14 µM (inactive)	65.5 µM (inactive)	37.8 µM (inactive)	16.3 µM (inactive)	18.5 µM (inactive)
N#Cc1cc2c(cc1Cl)Sc1nnc(Nc3ccccc3)n1S2(=O)=O	1.57 µM (inactive)	2.3 µM (inactive)	2.08 µM	2.02 µM (inactive)	1.78 µM (inactive)	5.94 µM (inactive)	2.29 µM (inactive)	1.44 µM (inactive)	2.43 µM (inactive)	1.72 µM (inactive)	1.91 µM (inactive)	2.77 µM (inactive)	2.18 µM (inactive)	1.87 µM (inactive)	3 µM (inactive)	0.15 µM (active)	1.92 µM (inactive)	2.12 µM (inactive)	1.89 µM (inactive)	2.55 µM (inactive)
OCCOc1ccccc2cccc1-2	> 100 µM (inactive)	> 100 µM (inactive)	> 100 µM		> 100 µM (inactive)	> 100 µM (inactive)	47.1 µM (inactive)	84.7 µM (inactive)	> 100 µM (inactive)	> 100 µM (inactive)	> 100 µM (inactive)	> 100 µM (inactive)	> 100 µM (inactive)	> 100 µM (inactive)	> 100 µM (inactive)	80 µM (inactive)	> 100 µM (inactive)	> 100 µM (inactive)	> 100 µM (inactive)	> 100 µM (inactive)
CN1c2ccccc2C2c3c(O)ccc(O)c3C=C([N+](=O)[O-])C21 (configuration not stated)	2.11 µM (inactive)	0.619 µM (active)	1.08 µM	0.424 µM (active)	1.04 µM (active)	1.56 µM (inactive)	0.324 µM (active)	0.497 µM (active)	0.548 µM (active)	2.13 µM (inactive)	0.656 µM (active)	1.67 µM (inactive)	0.653 µM (active)	0.65 µM (active)	2.53 µM (inactive)	0.569 µM (active)	1.83 µM (inactive)	0.136 µM (active)	0.0621 µM (active)	1.98 µM (inactive)
Cc1cc(CS(=O)(=O)/C=C/c2ccccc2[N+](=O)[O-])c(CS(=O)(=O)/C=C/c2ccccc2[N+](=O)[O-])cc1C	19.1 µM (inactive)	28.1 µM (inactive)	> 33 µM	70.1 µM (inactive)	53.5 µM (inactive)	57.7 µM (inactive)	> 100 µM (inactive)	35.3 µM (inactive)	37.2 µM (inactive)	35.7 µM (inactive)	16.4 µM (inactive)	29.9 µM (inactive)	> 100 µM (inactive)	19.6 µM (inactive)	16.9 µM (inactive)	13.7 µM (inactive)	> 57.1 µM (inactive)	> 61.7 µM (inactive)	23.7 µM (inactive)	15.4 µM (inactive)
CC(=O)O[C@H]1CC[C@H]2[C@@H]3CCC4C(C)=NNC(=O)C4[C@H]3CC[C@]12C (some centres not stated)	19.8 µM (inactive)	33.5 µM (inactive)	> 100 µM	> 100 µM (inactive)	45.4 µM (inactive)	> 100 µM (inactive)	> 100 µM (inactive)	> 100 µM (inactive)	> 100 µM (inactive)	> 90.2 µM (inactive)	33.3 µM (inactive)	48.9 µM (inactive)	> 100 µM (inactive)	36.5 µM (inactive)	41.5 µM (inactive)	> 100 µM (inactive)	> 100 µM (inactive)	> 100 µM (inactive)	34 µM (inactive)	> 75.2 µM (inactive)
c1ccc2c(c1)SCCC2NC1=NCCO1 (configuration not stated)	> 100 µM (inactive)	> 100 µM (inactive)	> 100 µM	> 100 µM (inactive)	> 100 µM (inactive)	> 100 µM (inactive)	> 100 µM (inactive)	> 100 µM (inactive)	> 100 µM (inactive)	> 100 µM (inactive)	> 100 µM (inactive)	> 100 µM (inactive)	> 100 µM (inactive)	> 100 µM (inactive)	> 100 µM (inactive)	> 100 µM (inactive)	> 100 µM (inactive)	89.5 µM (inactive)	> 100 µM (inactive)	> 100 µM (inactive)
Cc1n[nH]c(=S)n1/N=C/c1ccc(-c2ccc(Cl)cc2)o1	49.7 µM (inactive)		> 100 µM	> 100 µM (inactive)	> 100 µM (inactive)	> 100 µM (inactive)	> 100 µM (inactive)	> 100 µM (inactive)	> 100 µM (inactive)	> 100 µM (inactive)	73.5 µM (inactive)	61.9 µM (inactive)		31.6 µM (inactive)	67.8 µM (inactive)	> 100 µM (inactive)	> 100 µM (inactive)	> 100 µM (inactive)	> 100 µM (inactive)	29.8 µM (inactive)
O=C1Nc2ccc(S(=O)(=O)NCCO)cc2/C1=C1/Nc2ccccc2C1=O	16.2 µM (inactive)	8.81 µM (inactive)	13.3 µM	7.06 µM (inactive)	> 100 µM (inactive)	> 100 µM (inactive)	4.56 µM (inactive)	4.28 µM (inactive)	12.7 µM (inactive)	> 100 µM (inactive)	12 µM (inactive)	7.69 µM (inactive)	2.82 µM (inactive)	3.16 µM (inactive)	42 µM (inactive)	1.01 µM (active)	46.5 µM (inactive)	> 100 µM (inactive)	1.86 µM (inactive)	4.16 µM (inactive)
COc1ccc2c(c1)[nH]c1c(/C=C/c3ccccc3)nccc12	15.7 µM (inactive)	16 µM (inactive)	11.5 µM	7.55 µM (inactive)	11 µM (inactive)	14.9 µM (inactive)	23.5 µM (inactive)	15.9 µM (inactive)	14.8 µM (inactive)	14.5 µM (inactive)	17.5 µM (inactive)	12.6 µM (inactive)	3.83 µM (inactive)	14.1 µM (inactive)	8.81 µM (inactive)	3.47 µM (inactive)	14.9 µM (inactive)	10 µM (inactive)	12.4 µM (inactive)	16.2 µM (inactive)
Cc1c(O)c(OC2OC(CO)C(O)C(O)C2O)cc2c1CC[C@@H]1C2(C)C(=O)C[C@]2(C)[C@@H]([C@@](C)(O)C3CCC(C)(C)O3)[C@H](O)C[C@@]12C (some centres not stated)	> 100 µM (inactive)	> 100 µM (inactive)	> 100 µM	> 100 µM (inactive)	> 100 µM (inactive)	> 100 µM (inactive)	> 100 µM (inactive)	> 100 µM (inactive)	> 100 µM (inactive)	> 100 µM (inactive)	> 100 µM (inactive)	> 100 µM (inactive)	> 100 µM (inactive)	> 100 µM (inactive)	> 100 µM (inactive)	> 100 µM (inactive)	> 100 µM (inactive)	> 100 µM (inactive)	> 100 µM (inactive)	> 100 µM (inactive)
CCOC(=O)Nc1cc2c(c(N)n1)N=C(c1ccc(Cl)cc1Cl)CN2	< 0.0189 µM (active)	0.019 µM (active)	< 0.0229 µM	< 0.0228 µM (active)	< 0.0154 µM (active)	< 0.0191 µM (active)	15.6 µM (inactive)	< 0.01 µM (active)	< 0.0124 µM (active)	0.0383 µM (active)	0.0442 µM (active)	1.63 µM (inactive)	0.0425 µM (active)	< 0.019 µM (active)	0.0112 µM (active)	< 0.01 µM (active)	0.0392 µM (active)	< 0.0181 µM (active)	< 0.0213 µM (active)	< 0.01 µM (active)
